Assay results from patent publication US9340590B2 (priority 2011, dated 2016).
Read-outs that look alike come from different tables or passages of the source. Positions of bridges follow the written chain, without caps; N, C: chain ends. Non-standard residues stand in square brackets, D forms with d. Residues, ends and D or L forms follow the SMILES beside them. 1Nal = N[C@@H](Cc1cccc2ccccc12)C(=O)O

What was measured:
Experiment in all cases: cell-based
hNav1.7 = hNav1.7 (Homo sapiens, UniProt Q15858); format: cell-based
hNav1.7, sequence (Q15858 whole entry, looked up): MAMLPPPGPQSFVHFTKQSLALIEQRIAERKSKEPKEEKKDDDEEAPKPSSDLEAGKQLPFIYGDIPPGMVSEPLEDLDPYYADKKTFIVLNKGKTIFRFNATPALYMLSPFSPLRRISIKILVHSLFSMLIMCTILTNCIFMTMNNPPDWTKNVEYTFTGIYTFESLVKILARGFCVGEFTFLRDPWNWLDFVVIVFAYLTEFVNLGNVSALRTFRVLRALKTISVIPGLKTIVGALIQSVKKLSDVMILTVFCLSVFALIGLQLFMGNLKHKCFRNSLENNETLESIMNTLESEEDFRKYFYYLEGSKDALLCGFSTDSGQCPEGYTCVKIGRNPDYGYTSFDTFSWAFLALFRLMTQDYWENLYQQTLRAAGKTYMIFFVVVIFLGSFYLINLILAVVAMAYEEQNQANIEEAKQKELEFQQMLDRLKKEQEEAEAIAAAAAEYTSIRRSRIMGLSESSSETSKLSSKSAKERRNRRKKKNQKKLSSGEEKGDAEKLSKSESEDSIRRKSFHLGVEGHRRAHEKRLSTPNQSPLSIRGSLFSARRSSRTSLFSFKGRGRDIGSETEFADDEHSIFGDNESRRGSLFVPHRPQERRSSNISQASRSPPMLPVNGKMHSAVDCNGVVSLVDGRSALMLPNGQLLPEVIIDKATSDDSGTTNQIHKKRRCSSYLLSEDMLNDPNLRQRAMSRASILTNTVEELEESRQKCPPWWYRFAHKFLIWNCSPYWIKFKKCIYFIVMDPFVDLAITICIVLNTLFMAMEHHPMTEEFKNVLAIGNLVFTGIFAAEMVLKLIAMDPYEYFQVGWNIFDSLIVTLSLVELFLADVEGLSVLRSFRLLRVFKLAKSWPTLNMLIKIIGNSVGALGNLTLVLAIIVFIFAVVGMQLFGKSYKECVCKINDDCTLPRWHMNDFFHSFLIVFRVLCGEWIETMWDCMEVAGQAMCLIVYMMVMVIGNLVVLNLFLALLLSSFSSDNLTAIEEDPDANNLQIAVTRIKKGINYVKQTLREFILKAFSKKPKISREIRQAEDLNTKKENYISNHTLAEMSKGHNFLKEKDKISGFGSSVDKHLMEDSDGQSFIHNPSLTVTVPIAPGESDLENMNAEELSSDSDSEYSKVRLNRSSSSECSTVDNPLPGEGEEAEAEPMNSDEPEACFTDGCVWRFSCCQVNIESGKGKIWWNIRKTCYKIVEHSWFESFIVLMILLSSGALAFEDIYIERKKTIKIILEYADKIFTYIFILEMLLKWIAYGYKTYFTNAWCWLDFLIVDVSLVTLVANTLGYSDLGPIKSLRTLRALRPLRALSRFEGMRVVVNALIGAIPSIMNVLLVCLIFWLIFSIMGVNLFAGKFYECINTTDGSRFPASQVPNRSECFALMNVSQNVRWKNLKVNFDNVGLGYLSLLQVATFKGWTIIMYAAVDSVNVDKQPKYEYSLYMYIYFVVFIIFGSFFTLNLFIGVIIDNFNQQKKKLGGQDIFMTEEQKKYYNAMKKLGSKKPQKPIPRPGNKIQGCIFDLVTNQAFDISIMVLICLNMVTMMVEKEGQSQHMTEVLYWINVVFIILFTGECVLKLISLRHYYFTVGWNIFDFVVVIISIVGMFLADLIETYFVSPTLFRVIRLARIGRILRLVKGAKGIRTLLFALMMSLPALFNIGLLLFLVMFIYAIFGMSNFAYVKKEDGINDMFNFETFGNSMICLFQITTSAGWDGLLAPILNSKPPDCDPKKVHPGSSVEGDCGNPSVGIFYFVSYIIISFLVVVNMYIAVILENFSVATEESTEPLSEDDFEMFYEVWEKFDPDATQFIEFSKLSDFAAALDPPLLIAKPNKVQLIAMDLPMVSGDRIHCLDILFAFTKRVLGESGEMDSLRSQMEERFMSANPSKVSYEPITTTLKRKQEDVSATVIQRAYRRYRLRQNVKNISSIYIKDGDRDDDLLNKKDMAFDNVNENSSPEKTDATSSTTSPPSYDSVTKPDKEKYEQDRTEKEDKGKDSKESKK

hNav1.5 = hNav1.5 (Homo sapiens, UniProt Q14524)
hNav1.5, sequence (Q14524 whole entry, looked up): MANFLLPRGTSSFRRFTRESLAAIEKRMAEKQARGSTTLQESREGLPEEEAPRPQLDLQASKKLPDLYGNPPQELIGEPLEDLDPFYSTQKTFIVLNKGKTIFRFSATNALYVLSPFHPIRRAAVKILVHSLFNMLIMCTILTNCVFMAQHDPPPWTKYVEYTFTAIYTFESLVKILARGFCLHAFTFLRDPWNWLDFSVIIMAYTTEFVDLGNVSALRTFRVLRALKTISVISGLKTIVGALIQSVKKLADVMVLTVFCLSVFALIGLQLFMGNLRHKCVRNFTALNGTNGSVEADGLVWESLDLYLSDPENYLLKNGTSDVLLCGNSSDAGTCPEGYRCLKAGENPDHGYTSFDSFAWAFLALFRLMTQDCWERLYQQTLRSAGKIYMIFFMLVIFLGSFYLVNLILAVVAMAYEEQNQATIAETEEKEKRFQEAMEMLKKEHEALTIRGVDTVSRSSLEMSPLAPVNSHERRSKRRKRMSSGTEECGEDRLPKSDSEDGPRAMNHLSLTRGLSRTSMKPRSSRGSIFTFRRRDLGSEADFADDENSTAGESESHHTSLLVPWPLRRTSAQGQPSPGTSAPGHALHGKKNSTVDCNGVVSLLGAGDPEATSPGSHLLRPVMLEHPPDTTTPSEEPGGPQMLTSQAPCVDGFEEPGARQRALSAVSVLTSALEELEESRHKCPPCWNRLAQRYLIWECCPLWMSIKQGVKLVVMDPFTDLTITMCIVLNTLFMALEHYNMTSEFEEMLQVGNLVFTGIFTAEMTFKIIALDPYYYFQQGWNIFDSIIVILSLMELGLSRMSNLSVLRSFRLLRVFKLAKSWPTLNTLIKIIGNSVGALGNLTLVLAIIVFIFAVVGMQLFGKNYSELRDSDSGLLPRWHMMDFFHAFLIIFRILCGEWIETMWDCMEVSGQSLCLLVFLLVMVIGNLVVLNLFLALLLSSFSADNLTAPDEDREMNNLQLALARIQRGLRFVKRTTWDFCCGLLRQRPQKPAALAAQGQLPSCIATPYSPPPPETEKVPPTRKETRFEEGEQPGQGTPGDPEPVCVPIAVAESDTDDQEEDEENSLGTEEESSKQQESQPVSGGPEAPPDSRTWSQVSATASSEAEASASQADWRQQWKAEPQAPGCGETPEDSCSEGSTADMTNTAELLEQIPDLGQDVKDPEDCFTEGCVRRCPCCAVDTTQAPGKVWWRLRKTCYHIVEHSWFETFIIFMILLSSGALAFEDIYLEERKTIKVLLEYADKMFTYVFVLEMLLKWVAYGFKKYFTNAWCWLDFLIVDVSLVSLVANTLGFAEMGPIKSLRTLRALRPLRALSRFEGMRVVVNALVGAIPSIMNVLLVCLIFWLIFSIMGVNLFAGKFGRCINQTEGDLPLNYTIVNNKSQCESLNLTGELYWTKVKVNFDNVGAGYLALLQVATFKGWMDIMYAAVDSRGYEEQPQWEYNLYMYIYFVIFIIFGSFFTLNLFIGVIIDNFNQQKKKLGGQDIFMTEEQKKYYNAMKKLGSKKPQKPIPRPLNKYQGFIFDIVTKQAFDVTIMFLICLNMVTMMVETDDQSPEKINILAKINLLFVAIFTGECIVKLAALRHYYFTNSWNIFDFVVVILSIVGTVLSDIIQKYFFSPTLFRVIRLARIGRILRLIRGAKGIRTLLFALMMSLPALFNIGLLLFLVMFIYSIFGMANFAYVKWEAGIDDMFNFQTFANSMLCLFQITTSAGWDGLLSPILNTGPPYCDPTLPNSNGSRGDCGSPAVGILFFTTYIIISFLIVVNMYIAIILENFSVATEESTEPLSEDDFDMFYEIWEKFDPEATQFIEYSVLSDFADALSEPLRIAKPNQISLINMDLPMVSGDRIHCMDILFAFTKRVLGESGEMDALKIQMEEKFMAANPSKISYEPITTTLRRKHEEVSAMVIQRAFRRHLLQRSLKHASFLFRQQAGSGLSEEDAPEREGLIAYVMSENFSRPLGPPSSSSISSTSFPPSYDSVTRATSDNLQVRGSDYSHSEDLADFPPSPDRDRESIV

hNav1.3 = hNav1.3 (Homo sapiens, UniProt Q9NY46); details: IonWorks Quattro, read-out: IWQ Use Nav1.3
[1] = IonWorks Quattro, Use, read-out: IWQ Use Nav1.7
[2] = IonWorks Quattro, Use, read-out: IWQ Use Nav1.5

SMILES | IC50 (hNav1.7; Table 26, IonWorks Quattro, use, […], read-out: IWQ Use Nav1.7) [nM] | IC50 (hNav1.5; IWQ Use Nav1.5 (μM)) [µM] | IC50 (hNav1.3; Table 26, use, […]) [nM] | IC50 (hNav1.7; [1]) [nM] | IC50 (hNav1.5; [2]) [µM] | IC50 (hNav1.3; Use) [nM] | IC50 (hNav1.7) [nM]
CC[C@H](C)[C@@H]1NC(=O)[C@@H]2CSSC[C@@H]3NC(=O)[C@H](C(C)C)NC(=O)[C@H](CC(C)C)NC(=O)[C@H](CC(N)=O)NC(=O)[C@@H]4CCCN4C(=O)[C@H](CCCNC(=N)N)NC(=O)[C@H](CSSC[C@H](NC(=O)[C@@H](N)CC(=O)O)C(=O)N[C@@H](CC(C)C)C(=O)NCC(=O)N[C@@H](Cc4ccccc4)C(=O)N[C@@H](CCSC)C(=O)N[C@@H](CCCNC(=N)N)C(=O)N[C@@H](CCCCN)C(=O)N2)NC(=O)[C@H](CSSC[C@@H](C(=O)N[C@@H](CCCCN)C(=O)N[C@@H](Cc2ccc(O)cc2)C(=O)N[C@@H](Cc2cccc4ccccc24)C(=O)N[C@@H](Cc2ccccc2)C(N)=O)NC(=O)[C@H](Cc2c[nH]c4ccccc24)NC(=O)[C@H](CCCCN)NC(=O)[C@H](Cc2cnc[nH]2)NC(=O)[C@H]([C@@H](C)O)NC(=O)[C@H](CCCNC(=N)N)NC(=O)[C@H](CO)NC3=O)NC(=O)[C@H](CCCCN)NC(=O)[C@H](CC(=O)O)NC(=O)[C@H](CC(N)=O)NC(=O)[C@H](CC(=O)O)NC(=O)[C@@H]2CCCN2C1=O [compound 168] (H-DCLGFMRKCIPDNDKCCRPNLVCSRTHKWCKY[1Nal]F-NH2; disulfide 2-17, 9-23, 16-30) | 60 | 15.7 | 20 | – | – | – | –
CC[C@H](C)[C@@H]1NC(=O)[C@@H]2CSSC[C@@H]3NC(=O)[C@H](C(C)C)NC(=O)[C@H](CC(C)C)NC(=O)[C@H](CC(N)=O)NC(=O)[C@@H]4CCCN4C(=O)[C@H](CCCNC(=N)N)NC(=O)[C@H](CSSC[C@H](NC(=O)[C@@H](N)CC(=O)O)C(=O)N[C@@H](CC(C)C)C(=O)NCC(=O)N[C@@H](Cc4ccccc4)C(=O)N[C@@H](CCSC)C(=O)N[C@@H](CCCNC(=N)N)C(=O)N[C@@H](CCCCN)C(=O)N2)NC(=O)[C@H](CSSC[C@@H](C(=O)N[C@@H](CCCCN)C(=O)N[C@@H](Cc2ccc(O)cc2)C(=O)N[C@H](C(=O)N[C@@H](Cc2ccccc2)C(N)=O)C(C)C)NC(=O)[C@H](Cc2c[nH]c4ccccc24)NC(=O)[C@H](CCCCN)NC(=O)[C@H](Cc2cnc[nH]2)NC(=O)[C@H]([C@@H](C)O)NC(=O)[C@H](CCCNC(=N)N)NC(=O)[C@H](CO)NC3=O)NC(=O)[C@H](CCCCN)NC(=O)[C@H](CC(=O)O)NC(=O)[C@H](CC(N)=O)NC(=O)[C@H](Cc2c[nH]c3ccccc23)NC(=O)[C@@H]2CCCN2C1=O [compound 172] (H-DCLGFMRKCIPWNDKCCRPNLVCSRTHKWCKYVF-NH2; disulfide 2-17, 9-23, 16-30) | – | – | – | 50 | 8.04 | 40 | –
CC[C@H](C)[C@@H]1NC(=O)[C@@H]2CSSC[C@@H]3NC(=O)[C@H](C(C)C)NC(=O)[C@H](CC(C)C)NC(=O)[C@H](CC(N)=O)NC(=O)[C@@H]4CCCN4C(=O)[C@H](CCCNC(=N)N)NC(=O)[C@H](CSSC[C@H](NC(=O)[C@@H](N)CC(=O)O)C(=O)N[C@@H](CC(C)C)C(=O)NCC(=O)N[C@@H](Cc4ccccc4)C(=O)N[C@@H](CCSC)C(=O)N[C@@H](CCCNC(=N)N)C(=O)N[C@@H](CCCCN)C(=O)N2)NC(=O)[C@H](CSSC[C@@H](C(=O)N[C@@H](CCCCN)C(=O)N[C@@H](Cc2ccc(O)cc2)C(=O)N[C@H](C(=O)N[C@@H](Cc2ccccc2)C(N)=O)C(C)C)NC(=O)[C@H](Cc2c[nH]c4ccccc24)NC(=O)[C@H](CCCCN)NC(=O)[C@H](Cc2cnc[nH]2)NC(=O)[C@H]([C@@H](C)O)NC(=O)[C@H](CCCNC(=N)N)NC(=O)[C@H](CO)NC3=O)NC(=O)[C@H](CCCCN)NC(=O)[C@H](CC(=O)O)NC(=O)[C@H](Cc2c[nH]c3ccccc23)NC(=O)[C@H](CC(=O)O)NC(=O)[C@@H]2CCCN2C1=O [compound 173] (H-DCLGFMRKCIPDWDKCCRPNLVCSRTHKWCKYVF-NH2; disulfide 2-17, 9-23, 16-30) | – | – | – | 90 | 17.3 | 50 | –
CC[C@H](C)[C@@H]1NC(=O)[C@@H]2CSSC[C@@H]3NC(=O)[C@H](C(C)C)NC(=O)[C@H](CC(C)C)NC(=O)[C@H](CC(N)=O)NC(=O)[C@@H]4CCCN4C(=O)[C@H](Cc4c[nH]c5ccccc45)NC(=O)[C@H](CSSC[C@H](NC(=O)[C@@H](N)CC(=O)O)C(=O)N[C@@H](CC(C)C)C(=O)NCC(=O)N[C@@H](Cc4ccccc4)C(=O)N[C@@H](CCSC)C(=O)N[C@@H](CCCNC(=N)N)C(=O)N[C@@H](CCCCN)C(=O)N2)NC(=O)[C@H](CSSC[C@@H](C(=O)N[C@@H](CCCCN)C(=O)N[C@@H](Cc2ccc(O)cc2)C(=O)N[C@H](C(=O)N[C@@H](Cc2ccccc2)C(N)=O)C(C)C)NC(=O)[C@H](Cc2c[nH]c4ccccc24)NC(=O)[C@H](CCCCN)NC(=O)[C@H](Cc2c[nH]cn2)NC(=O)[C@H]([C@@H](C)O)NC(=O)[C@H](CCCNC(=N)N)NC(=O)[C@H](CO)NC3=O)NC(=O)[C@H](CCCCN)NC(=O)[C@H](CC(=O)O)NC(=O)[C@H](CC(N)=O)NC(=O)[C@H](CC(=O)O)NC(=O)[C@@H]2CCCN2C1=O [compound 174] (H-DCLGFMRKCIPDNDKCCWPNLVCSRTHKWCKYVF-NH2; disulfide 2-17, 9-23, 16-30) | – | – | – | 190 | 14.7 | 80 | –
CC[C@H](C)[C@@H]1NC(=O)[C@@H]2CSSC[C@@H]3NC(=O)[C@H](C(C)C)NC(=O)[C@H](CC(C)C)NC(=O)[C@H](Cc4c[nH]c5ccccc45)NC(=O)[C@@H]4CCCN4C(=O)[C@H](CCCNC(=N)N)NC(=O)[C@H](CSSC[C@H](NC(=O)[C@@H](N)CC(=O)O)C(=O)N[C@@H](CC(C)C)C(=O)NCC(=O)N[C@@H](Cc4ccccc4)C(=O)N[C@@H](CCSC)C(=O)N[C@@H](CCCNC(=N)N)C(=O)N[C@@H](CCCCN)C(=O)N2)NC(=O)[C@H](CSSC[C@@H](C(=O)N[C@@H](CCCCN)C(=O)N[C@@H](Cc2ccc(O)cc2)C(=O)N[C@H](C(=O)N[C@@H](Cc2ccccc2)C(N)=O)C(C)C)NC(=O)[C@H](Cc2c[nH]c4ccccc24)NC(=O)[C@H](CCCCN)NC(=O)[C@H](Cc2cnc[nH]2)NC(=O)[C@H]([C@@H](C)O)NC(=O)[C@H](CCCNC(=N)N)NC(=O)[C@H](CO)NC3=O)NC(=O)[C@H](CCCCN)NC(=O)[C@H](CC(=O)O)NC(=O)[C@H](CC(N)=O)NC(=O)[C@H](CC(=O)O)NC(=O)[C@@H]2CCCN2C1=O [compound 175] (H-DCLGFMRKCIPDNDKCCRPWLVCSRTHKWCKYVF-NH2; disulfide 2-17, 9-23, 16-30) | – | – | – | 50 | 7.39 | 20 | –
CC[C@H](C)[C@@H]1NC(=O)[C@@H]2CSSC[C@@H]3NC(=O)[C@H](C(C)C)NC(=O)[C@H](Cc4c[nH]c5ccccc45)NC(=O)[C@H](CC(N)=O)NC(=O)[C@@H]4CCCN4C(=O)[C@H](CCCNC(=N)N)NC(=O)[C@H](CSSC[C@H](NC(=O)[C@@H](N)CC(=O)O)C(=O)N[C@@H](CC(C)C)C(=O)NCC(=O)N[C@@H](Cc4ccccc4)C(=O)N[C@@H](CCSC)C(=O)N[C@@H](CCCNC(=N)N)C(=O)N[C@@H](CCCCN)C(=O)N2)NC(=O)[C@H](CSSC[C@@H](C(=O)N[C@@H](CCCCN)C(=O)N[C@@H](Cc2ccc(O)cc2)C(=O)N[C@H](C(=O)N[C@@H](Cc2ccccc2)C(N)=O)C(C)C)NC(=O)[C@H](Cc2c[nH]c4ccccc24)NC(=O)[C@H](CCCCN)NC(=O)[C@H](Cc2cnc[nH]2)NC(=O)[C@H]([C@@H](C)O)NC(=O)[C@H](CCCNC(=N)N)NC(=O)[C@H](CO)NC3=O)NC(=O)[C@H](CCCCN)NC(=O)[C@H](CC(=O)O)NC(=O)[C@H](CC(N)=O)NC(=O)[C@H](CC(=O)O)NC(=O)[C@@H]2CCCN2C1=O [compound 176] (H-DCLGFMRKCIPDNDKCCRPNWVCSRTHKWCKYVF-NH2; disulfide 2-17, 9-23, 16-30) | – | 13.8 | – | – | – | 50 | 100
